In assay [1] the test system is VLA-4 positive B16F10 melanoma cells. The conditions noted are these: previously reported; cited from earlier work.
In assay [2] the test system is mice with CFA-induced inflammation. Type of assay: in vivo, mouse. The conditions noted are these: ICR mice, CFA in right paw, 200 μCi iv, n=3.

Read-outs that look alike come from different tables or passages of the source.

Here are results for one substance from PMC5520654 (Journal of immunology (Baltimore, Md. : 1950), 2017).

As a reminder, the Kd is the free concentration of one partner at which half of the binding sites on the other are occupied at equilibrium, for simple one-to-one binding. Regarding CB-TE1A1P-PEG4-LLP2A [^64Cu-LLP2A], in assay [1], the Kd was 280 pM. Further, the Inflamed paw/muscle ratio in assay [2] (PET/CT 2 h post-injection) was 7.5 ± 3.7; in assay [2] (PET/CT 6 h post-injection), 16.7 ± 1.
